Test results reported in publication PMC3546861, “HLA-A*0201-restricted CD8^+ T-cell epitopes identified in dengue viruses” (Virology Journal, 2012).
“Also recorded” adds a separate entry of the source.

How the values were obtained:
[1] = target: HLA-A*0201 molecule of T2 cells (Homo sapiens, UniProt P04439, D140Y/D185E/D98H/E176V/E277Q/G131W/G231S/I119V/I121R/I166T/I218V/L300P/L318F/N151K/N90K/P208A/P217A/Q86G/Q94H/R138H/R169H/T345S); experiment: MHC-peptide complex stabilization assay on T2 cells; assay type: binding; parameters: key: FI = (MFI sample − MFI background) / MFI background; conditions: serum-free RPMI 1640, 1 h 37°C, 12 h 26°C, 3 h 37°C, FITC anti-HLA-A*0201, flow cytometry, FI = (MFI sample - MFI background)/MFI background
Experimental: Figure 1 The affinity of candidate epitopes for HLA-A*0201 molecules. T2 cells were incubated in RPMI 1640 medium lacking peptides (red) or containing low peptide (1 μg/ml) (green) or intermediate peptide (10 μg/ml) (purple) or high peptide (100 μg/ml) (blue) for 15 h and stained with FITC-conjugated anti-HLA-A*0201 antibody. Then, mean fluorescence intensity (MFI) was measured using flow cytometry.
The ability of peptides to stabilize MHC molecules on the surface of T2 cells was measured as described previously. T2 cells (2 × 10^5 cells/0.5 ml) were incubated in serum-free RPMI 1640 medium in the presence of different concentrations of peptide (1, 10, 100 μg/ml) for 1 h at 37°C/5% CO2 incubator. Cells were then incubated at 26°C for 12 h, and then returned to 37°C for a 3 h incubation. Finally, T2 cells were stained with FITC-conjugated anti-HLA-A*0201 antibody (BD Pharmingen, USA) for 40 min at 4°C. T2 cells incubated in serum-free RPMI 1640 medium without peptides served as a negative control (background). Mean fluorescence intensity (MFI) of T2 cells was recorded with a FACS Calibur flow cytometer (BD bioscience, USA), and results expressed as fluorescence index (FI). The following formula was used to calculate the FI.
(1) FI=MFI sample-MFI background/MFI background

[2] = test system: HLA-A*0201 transgenic mice; experiment: ICS assay for CD8+ IFN-γ+ T cells in splenocytes of peptide-immunized mice; assay type: in vivo, mouse; conditions: for ICS CD8^+IFN-γ^+T cells, proportion in CD8^+ T cells: mice immunized s.c. with peptide 50 μg/mouse in Freund's adjuvant, 5 weekly doses, splenocytes stimulated with cognate peptide 10 μg/ml, 6 h, brefeldin A, CD3+CD8+ gate, mean ± SD, 4 mice/group, SD; for Cross-reactivity of peptide-specific CD8^+ T cells towards heterologous variant peptides: splenocytes of peptide-immunized mice stimulated with heterologous peptide 10 μg/ml, ELISPOT and ICS (Figures 4 and 7), result in words
Experimental: (§1) HLA-A*0201 transgenic mice were subdivided into 12 groups (4 mice/group). Mice were inoculated subcutaneously with high-affinity peptide (50 μg/mouse) emulsified in Freund’s complete adjuvant. One week later, mice were immunized with the same peptide emulsified in Freund’s incomplete adjuvant. Mice were boosted three more times at weekly intervals. Mock-immunized (adjuvant alone) HLA-A*0201 transgenic mice and peptide-immunized C57BL/6 mice served as controls. One week after the final immunization, all mice were sacrificed and splenocytes extracted. ELISPOT and ICS assays were conducted to detect the frequencies of peptide-specific IFN-γ-producing cells. All animal were performed following the Institutional Animal Care and Use Committee-approved protocols.
Splenocytes were cultured with either cognate peptide (10 μg/ml) or heterologous peptide (10 μg/ml) in a 1.5 ml microcentrifuge tube for 6 h at 37°C/5% CO2. […] During the last 5 h, brefeldin A (10 μg/ml) was added to each tube. After a 6 h incubation, cells were washed and then stained with APC-conjugated anti-mouse CD3 and FITC-conjugated anti-mouse CD8 antibodies (eBioscience company, USA) for 40 min at 4°C. Cells were then washed and fixed with 4% paraformaldehyde for 20 min at 4°C, permeabilized using 0.5% saponin for 10 min at 4 °C, and stained with PE-conjugated anti-mouse IFN-γ antibody (eBioscience company, USA) for 40 min at 4°C. A FACS Calibur flow cytometer (BD Bioscience, USA) was used to analyze labeled cells. CD3^+ CD8^+ T cells were gated and the proportion of IFN-γ-producing CD8^+ T cells (CD8^+ IFN-γ^+ T cells) as a subset of all CD8^+ T cells were determined.

[3] = test system: HLA-A*0201 transgenic mice; experiment: IFN-γ ELISPOT assay on splenocytes of peptide-immunized mice; assay type: in vivo; conditions: mice immunized s.c. with peptide 50 μg/mouse in Freund's adjuvant, 5 weekly doses, splenocytes stimulated with cognate peptide 10 μg/ml, 24 h, background subtracted, mean ± SD, 4 mice/group
Experimental: as §1
Splenocytes were resuspended to a final concentration of 1 × 10^6 cells/ml in RPMI 1640 medium supplemented with 10% fetal bovine serum (FBS). ELISPOT assays were performed in pre-coated 96-well plates (U-CyTech Company, Netherlands). Splenocytes were seeded at 1 × 10^5 cells/well and exposed to either cognate or heterologous peptide at a final concentration of 10 μg/ml. Negative control wells contained splenocytes but no peptide. Positive control wells included cells plus phytohemagglutinin (PHA) at a final concentration of 10 μg/ml. All tests were carried out in duplicate wells, with plates incubated for 24 h at 37°C/5% CO2. Plates were washed and then incubated with biotinylated anti-mouse IFN-γ for 1 h at 37°C. After washing, plates were labeled with streptavidin-horseradish peroxidase, and developed using fresh ACE solution as a substrate. IFN-γ spots were counted using an ELISPOT reader (Beijing SageCreation Science Co. Ltd, Beijing, China). Peptide-specific T-cell frequency was expressed as SFCs/1 × 10^5 splenocytes. Background spots (negative control wells) were subtracted from test wells. A positive response to a peptide was defined as having > 5 SFCs/1 × 10^5 splenocytes after subtraction of the background.

Row | Sequence | FI (fluorescence index) ([1]; peptide 1 μg (1 μg/ml)) | FI (fluorescence index) ([1]; peptide 10 μg (10 μg/ml)) | FI (fluorescence index) ([1]; peptide 100 μg (100 μg/ml)) | ICS CD8^+IFN-γ^+T cells, proportion in CD8^+ T cells [2] [%] | FI (fluorescence index) ([1]; peptide 100 μg (100 μg/ml), listed as D1V-NS2a144–152) | ELISPOT IFN-γ spot-forming cells [3] [SFCs/1×10^5cells] | Cross-reactivity of peptide-specific CD8^+ T cells towards heterologous variant peptides [2] | FI (fluorescence index) ([1]; peptide 100 μg (100 μg/ml), listed as D4V-NS4b179–187) | FI (fluorescence index) ([1]; peptide 100 μg (100 μg/ml), listed as D2V-NS4b182–190) | FI (fluorescence index) ([1]; peptide 100 μg (100 μg/ml), listed as D1V-NS4b183–191) | FI (fluorescence index) ([1]; peptide 100 μg (100 μg/ml), listed as D3V-NS2a144–152) | FI (fluorescence index) ([1]; peptide 100 μg (100 μg/ml), listed as D3V-NS4b182–190) | FI (fluorescence index) ([1]; peptide 100 μg (100 μg/ml), listed as D2V-NS2a144–152)
1 | MLLALIAVL [D1V-NS4a56-64] | 0.05 | 0.05 | 0.08 |  |  |  |  |  |  |  |  |  | 
2 | QLWAALLSL [D1V-NS2a144-152] | 0.05 | 0.22 | 1.12 | 0.41 ± 0.07 | exceeds 1 | 36 ± 6 |  |  |  |  |  |  | 
3 | QVGTLALSL [D4V-NS2a143-151, D4V variant peptide of D1V-NS2a144-152, nonapeptide …] | 0.22 | 0.2 | 0.8 | 0.13 ± 0.06 |  | 12 ± 3 |  |  |  |  |  |  | 
4 | LLMRTTWAF [D4V-NS4b179-187, D4V variant peptide of D1V-NS4b183-191, nonapeptide …] | 0.2 | 0.59 | 4.4 | 0.16 ± 0.06 |  | 22±4 | cross-reacted with each other | > 4 |  |  |  |  | 
5 | TILTIIGLI [D4V-NS4a140-148, D4V variant peptide of D1V-NS4a140-148, nonapeptide …] | 0.15 | 0.3 | 1.08 | 0.21 ± 0.05 |  | 17 ± 5 |  |  |  |  |  |  | 
6 | LVMAFMAFL [D1V-C46-54] | 0.01 | 0.02 | 0.02 |  |  |  |  |  |  |  |  |  | 
7 | AMVLSIVSL [D1V-NS2a169-177] | 0.03 | 0.05 | 0.04 |  |  |  |  |  |  |  |  |  | 
8 | LMMRTTWAL [D2V-NS4b182-190, D2V variant peptide of D1V-NS4b183-191, nonapeptide …] | 0.58 | 3.42 | 4.8 | 0.37 ± 0.09 |  | 37 ± 5 | cross-reacted with each other |  | > 4 |  |  |  | 
9 | LLMRTTWAL [D1V-NS4b183-191] | 0.29 | 0.4 | 1.95 | 0.44 ± 0.09 |  | 42 ± 7 | marked cross-reactivity; also recorded: cross-reacted with each other |  |  | exceeds 1 |  |  | 
10 | QLWTALVSL [D3V-NS2a144-152, D3V variant peptide of D1V-NS2a144-152, nonapeptide …] | 0.2 | 0.45 | 2.6 | 0.79 ± 0.15 |  | 62 ± 9 |  |  |  |  | > 1 |  | 
11 | GILTLAAIV [D3V-NS4a140-148, D3V variant peptide of D1V-NS4a140-148, nonapeptide …] | 0.1 | 0.15 |  | 0.37 ± 0.08 |  | 37 ± 6 |  |  |  |  |  |  | 
12 | LLMRTSWAL [D3V-NS4b182-190, D3V variant peptide of D1V-NS4b183-191, nonapeptide …] | 0.22 | 0.65 | 3.6 | 0.27 ± 0.07 |  | 24 ± 5 | cross-reacted with each other |  |  |  |  | > 1 | 
13 | AILTVVAAT [D2V-NS4a140-148, D2V variant peptide of D1V-NS4a140-148, nonapeptide …] | 0.1 | 0.2 | 1.2 | 0.12 ± 0.05 |  | 10 ± 3 |  |  |  |  |  |  | 
14 | QLAVTIMAI [D2V-NS2a144-152, D2V variant peptide of D1V-NS2a144-152, nonapeptide …] | 0.24 | 0.39 | 3.85 | 0.21 ± 0.05 |  | 21±3 |  |  |  |  |  |  | > 1
